From PMC11267363, “Supramolecular Nanofibers Ameliorate Bleomycin‐Induced Pulmonary Fibrosis by Restoring Autophagy” (Advanced Science, 2024)
Ends that are not written are not given here.

Key:
MRC-5 cells = assay: Western blot of α-SMA, Col 1 and fibronectin in TGF-β1 treated MRC-5 cells; type: cell-based, human; conditions: MRC-5 cells treated with TGF-β1, western blot, n = 3
Excerpt: The progression of pulmonary fibrosis is closely associated with impaired autophagic flux by promoting the differentiation of fibroblast into myofibroblast. Given that Ac‐GFFY‐A2 peptide nanofibers have ability to restore the impaired autophagy, we proceeded to investigate their potential anti‐fibrotic effect. Fibroblasts and myofibroblasts are activated after tissue injury and in IPF patients, leading to increased ECM production and enhanced fibroblast migratory capacity.
Western blot analysis and co-immunoprecipitation
Total proteins were exacted from cells or tissues with RIPA lysis buffer (Beyotime Biotecnology). The protein concentration was measured using BCA Protein Assay Kit (Thermo Scientific). Equal amounts of lysates were resolved by SDS–PAGE. The protein transferred PVDF membranes were incubated with following primary antibodies at 4°C overnight: Then the membranes were incubated with horseradish peroxidase (HRP)-conjugated secondary antibodies at room temperature for 1 h, and protein signals were detected using an enhanced chemiluminescence kit (Pierce). […] The co -precipitates were resolved using SDS–PAGE and detected with immunoblotting. […]
The mice were then intravenously injected with 200 μL of sulfo-Cy5 labeled peptide (0.3 mg per mouse). Fluorescence imaging was performed using a IVIS Lumina II imaging (PerkinElmer, USA) at different time point post injection. […]

[1] = molecular target: bovine serum albumin (BSA) (Bos taurus, UniProt P02769); assay: Microscale thermophoresis (MST) binding to BSA (negative control protein); conditions: BSA as negative control
Experimental: To determine the effects of the self‐assembly factor “Ac‐GFFY” on the secondary structure of the A2 peptide fragment, Circular dichroism (CD) and Fourier transform infrared (FTIR) measurements were performed. […] We subsequently assessed the binding affinity between Ac‐GFFY‐A2 or A2 peptides to the human TRB3 protein or bovine serum albumin (BSA) using microscale thermophoresis (MST) assay, with BSA serving as the control group. […] Therefore, we labeled the peptide with the fluorescence group 7‐nitro‐1,2,3‐benzoxadiazole (NBD) to determine the cellular uptake via flow cytometer. The NBD‐labeled peptide was incubated with both of normal and activated MRC‐5 cells for 4 h, respectively. […] Collectively, under the action of supramolecular self‐assembly, the peptide assemblies with stable secondary conformation can not only be effectively absorbed by MRC‐5 cells but also have the potential to interfere with TRB3/p62 PPIs.
HR‐MS (Varian QFT‐ESI) was used to characterize the molecular weight of compounds. TEM (JEM100CXII) was performed at the Tecnai G2 F20 system, operating at 100 kV. Circular dichroism (CD) spectrum was obtained by a BioLogic (MOS‐450) system. Dynamic light scattering was measured by a ZETAPALS/BI‐200SM (BROOKHAVEN) system. Confocal laser scanning microscopy (CLSM) was measured by Leica TCS SP‐5. Flow cytometry (BD, FACS) was used to detect the cellular uptake. […]

[2] = Self-assembly in saline buffer (Tyndall path, TEM nanostructure); type: physicochemical
Excerpt: To verify our hypothesis, we utilized the self‐assembling factor (Acetyl‐Gly‐Phe‐Phe‐Tyr, Ac‐GFFY) to regulate the secondary conformation of A2 peptide (GGWLTRLLQTK) from p62 UBA domain binding with TRB3.^[ [16] ^] The self‐assembling factor Ac‐GFFY was covalently attached to the N‐terminal of peptide A2 to introduce Ac‐GFFY‐A2 (Figure 2a) as a modulator of the TRB3/p62 PPIs, non‐self‐assembling peptide A2 as the control group. Both of those peptide compounds were synthesized by standard solid phase peptide synthesis (SPPS), purified by reversed‐phase high‐performance liquid chromatography (HPLC), and identified through the high‐resolution mass spectrometry (HR‐MS, Figures S4 and S5, Supporting Information). The 0.5 wt% of peptide Ac‐GFFY‐A2 could observe an obvious “Tyndall path” in saline buffer (0.9% NaCl) after the heating‐cooling process (Figure S13, Supporting Information), compared with peptide A2 solution (0.5 wt%, saline buffer). The critical aggregation concentration (CAC) of those compounds was detected by dynamic light scattering. […] Furthermore, a transmission electron microscope (TEM) was used to observe the nanostructures formed by different compounds. Ac‐GFFY‐A2 could self‐assemble and form entangled nanofibers with a diameter of 8–12 nm (Figure 2b).
Transmission electron microscopy (TEM)
The samples (0.5 wt%, 10 μL) were loaded onto copper mesh coated with carbon.
After excess liquid was removed by a filter paper, 2% uranium acetate was used for dyeing the sample for 1 minute and the sample was dried overnight in a dryer. The samples were then imaged at 200 kV using a Tecnai G2 F20 system.
Circular dichroism (CD) spectrum
A BioLogic (MOS-450) system was used to record the circular dichroism spectrum.
Test wavelengths was in the range from 180 nm to 280 nm. […]
The CAC values were determined by dynamic light scattering (DLS). Solutions containing different concentration of compound in saline buffer were tested and the light scattering intensity was recorded for each concentration analyzed. […]

Chain of bovine serum albumin (BSA) (P02769 25-607): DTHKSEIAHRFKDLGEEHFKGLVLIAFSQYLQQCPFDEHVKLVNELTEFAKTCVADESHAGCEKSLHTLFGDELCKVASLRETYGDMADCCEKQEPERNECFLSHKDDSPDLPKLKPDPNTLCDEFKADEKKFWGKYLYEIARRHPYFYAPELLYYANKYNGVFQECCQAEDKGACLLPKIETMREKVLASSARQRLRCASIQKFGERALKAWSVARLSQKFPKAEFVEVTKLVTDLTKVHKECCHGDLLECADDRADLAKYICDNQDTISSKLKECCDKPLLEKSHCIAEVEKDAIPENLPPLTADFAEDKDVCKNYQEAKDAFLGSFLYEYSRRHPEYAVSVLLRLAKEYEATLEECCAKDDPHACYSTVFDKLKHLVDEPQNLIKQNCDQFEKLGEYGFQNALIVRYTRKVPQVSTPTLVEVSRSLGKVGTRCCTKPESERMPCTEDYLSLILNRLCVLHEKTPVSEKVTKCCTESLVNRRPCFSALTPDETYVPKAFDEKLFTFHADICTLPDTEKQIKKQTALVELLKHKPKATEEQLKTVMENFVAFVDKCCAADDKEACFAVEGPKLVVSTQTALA

Row | Substance | protein expression of α-SMA, col 1 and fibronectin (MRC-5 cells) | binding with BSA [1] | Tyndall path ([2]; 0.5 wt% in saline buffer (0.9% NaCl) after heating-cooling process) | diameter of entangled nanofibers (TEM) ([2]; 0.5 wt% in saline buffer after heating-cooling process, TEM) | nanostructure in TEM image ([2]; 0.5 wt%, saline buffer, TEM)
1 | Ac-GFFYGGWLTRLLQTK-OH [Ac-GFFY-A2] | remarkably reduced | no binding | obvious | 8–12 nm | –
2 | GGWLTRLLQTK-OH [A2, reference compound] | hardly inhibited fibroblast to myofibroblast differentiation | no binding | – | – | amorphous structures
